Laboratory results from US12178810B2 (priority 2016, dated 2024).

Experiments:
[1] = test system: Healthy human male volunteers; experiment: Retrospective analysis of the Phase 1 DDI study: heart rate and blood pressure at rest; assay type: in vivo
Description: FIG. 2. […] By ‘t’ test—Wilcoxon matched-pairs signed rank test.
(§1) Healthy human male volunteers, 18-50 years of age. A total of 14 subjects were included in the study.
(§2) Two consecutive study periods separated by a washout period of at least three days. The sequence of events was the same for all subjects.
Particularly, the effect of tesofensine-metoprolol on heart rate and blood pressure at rest, was investigated.

[2] = test system: healthy male subjects; details: metoprolol alone; cited from earlier work
[3] = biological target: T1, CYP2D6 (Homo sapiens, UniProt P10635); experiment: Phase 1 drug-drug interaction (DDI) study with metoprolol: metoprolol pharmacokinetics without and with tesofensine at steady state; assay type: in vivo; details: metoprolol 50 mg single dose after 14 days tesofensine vs metoprolol alone
T1 construct: Healthy human male volunteers, 18-50 years of age; A total of 14 subjects were included in the study; from tissue; host or cells: in vivo, healthy human male volunteers (endogenous enzyme)
T1 sequence (P10635 whole entry): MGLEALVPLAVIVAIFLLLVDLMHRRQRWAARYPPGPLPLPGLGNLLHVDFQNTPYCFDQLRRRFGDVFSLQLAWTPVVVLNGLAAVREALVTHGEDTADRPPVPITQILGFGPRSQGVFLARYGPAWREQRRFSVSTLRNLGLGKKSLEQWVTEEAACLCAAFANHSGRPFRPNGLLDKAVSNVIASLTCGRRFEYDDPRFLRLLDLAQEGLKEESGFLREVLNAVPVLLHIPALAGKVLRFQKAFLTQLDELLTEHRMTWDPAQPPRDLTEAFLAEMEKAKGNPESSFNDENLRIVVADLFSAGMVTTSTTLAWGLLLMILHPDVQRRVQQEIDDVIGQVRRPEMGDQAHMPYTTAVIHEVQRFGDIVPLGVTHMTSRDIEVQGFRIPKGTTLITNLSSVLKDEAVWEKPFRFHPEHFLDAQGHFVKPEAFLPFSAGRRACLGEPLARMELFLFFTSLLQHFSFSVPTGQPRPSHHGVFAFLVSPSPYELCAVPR
Description: FIG. 1. PK of metoprolol after a single dosing in absence and presence of tesofensine at steady state.
as §1, §2

[4] = test system: obese patients; details: long-term treatment, corrected for placebo and diet effects; cited from earlier work

SMILES	effect on tesofensine-induced increase in heart rate, 7 hours after single metoprolol dose ([1]; day 14, tesofensine treated subjects, 7 hours after metoprolol)	effect on heart rate, ~24 hours after single metoprolol dose ([1]; day 15, tesofensine treated subjects, ~24 hours after metoprolol)	decrease in supine diastolic blood pressure [2]	decrease in supine systolic blood pressure [2]	effect on metoprolol Cmax [3]	effect on metoprolol Tmax [3]	heart rate after 14 days of tesofensine vs prelevel ([1]; tesofensine only, day 14, p<0.01 vs prelevel)	diastolic BP after 14 days of tesofensine treatment ([1]; tesofensine only, vs pre-treatment)	systolic BP after 14 days of tesofensine treatment ([1]; tesofensine only, vs pre-treatment, not significant)	weight loss [4]
COCCc1ccc(OCC(O)CNC(C)C)cc1 (stereo not shown) [metoprolol, 1-(Isopropylamino)-3-[4-(2-methoxyethyl)-phenoxy]-propan-2-ol]	normalize the tesofensine-induced increase in heart rate	disappeared	about 4 mmHg	about 4 mmHg						
CCOC[C@@H]1[C@@H](c2ccc(Cl)c(Cl)c2)C[C@@H]2CC[C@H]1N2C [tesofensine, (1R,2R,3S,5S)-3-(3,4-dichlorophenyl)-2-(ethoxymethyl)-8-methyl-8-azabicyclo[3.2.1]octane]					no effect	no effect	Increase in heart rate	essentially not altered	increase systolic BP slightly	about 10%
